Experimental data as given in PubChem BioAssay AID328 (DTP/NCI, 2004).
Several values for one entry are separate records, joined by “and”; a condition that tells them apart may be missing. Identical values can stand only once. Toxic doses and inconclusive results are not listed. Residues, ends and D or L forms follow the SMILES beside them.

Tested on: BDF1 mice, P388 leukemia ip, median survival T/C
Assay: NCI In Vivo Anticancer Drug Screen. Data for tumor model P388 Leukemia (intraperitoneal) in B6D2F1 (BDF1) mice
Conditions: endpoint: median survival time, higher = longer survival
How it was run: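 Mice carrying the transplantable tumour receive compound or vehicle. Survival is followed in each arm, and the treated measure is divided by the vehicle measure.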

[1] = dose: 100.0 mg/kg/injection, schedule: Q01DX009 (ip), vehicle: Klucel (hydroxypropylcellulose) (HPC)
[2] = dose: 50.0 mg/kg/injection, schedule: Q04DX003 (ip), vehicle: saline with Tween-80
[3] = dose: 100.0 mg/kg/injection, schedule: Q01DX009 (ip), vehicle: saline with Tween-80
[4] = dose: 100.0 mg/kg/injection, schedule: Q04DX003 (ip), vehicle: Klucel (hydroxypropylcellulose) (HPC)
[5] = dose: 100.0 mg/kg/injection, schedule: Q04DX003 (ip), vehicle: saline with Tween-80
[6] = dose: 200.0 mg/kg/injection, schedule: Q01DX009 (ip), vehicle: saline with Tween-80
[7] = dose: 200.0 mg/kg/injection, schedule: Q04DX003 (ip), vehicle: Klucel (hydroxypropylcellulose) (HPC)
[8] = dose: 200.0 mg/kg/injection, schedule: Q04DX003 (ip), vehicle: saline with Tween-80
[9] = dose: 400.0 mg/kg/injection, schedule: Q01DX009 (ip), vehicle: saline with Tween-80
[10] = dose: 400.0 mg/kg/injection, schedule: Q04DX003 (ip), vehicle: Klucel (hydroxypropylcellulose) (HPC)
[11] = dose: 200.0 mg/kg/injection, schedule: Q04DX003 (ip), vehicle: saline
[12] = dose: 400.0 mg/kg/injection, schedule: Q04DX003 (ip), vehicle: saline
[13] = dose: 50.0 mg/kg/injection, schedule: Q01DX009 (ip), vehicle: saline with Tween-80
[14] = dose: 12.5 mg/kg/injection, schedule: Q01DX009 (ip), vehicle: Klucel (hydroxypropylcellulose) (HPC)
[15] = dose: 100.0 mg/kg/injection, schedule: Q04DX003 (ip), vehicle: saline sonified
[16] = dose: 25.0 mg/kg/injection, schedule: Q01DX009 (ip), vehicle: saline
[17] = dose: 50.0 mg/kg/injection, schedule: Q01DX009 (ip), vehicle: saline
[18] = dose: 100.0 mg/kg/injection, schedule: Q01DX009 (ip), vehicle: saline
[19] = dose: 50.0 mg/kg/injection, schedule: Q01DX009 (ip), vehicle: Klucel (hydroxypropylcellulose) (HPC)

In the case of `NCCCCC(N)C(=O)NC(CCCN=C(N)N)C(N)=O` (stereo not drawn) (H-Lys-Arg-NH2; configuration not given here), the T/C (dose: 6.25 mg/kg/injection, schedule: Q04DX003 (ip), vehicle: water) is reported as 115 % of control, the T/C (dose: 12.5 mg/kg/injection, schedule: Q04DX003 (ip), vehicle: water) is reported as 112 % of control and the T/C (dose: 25.0 mg/kg/injection, schedule: Q01DX009 (ip), vehicle: water) is reported as 101 % of control. The T/C (dose: 25.0 mg/kg/injection, schedule: Q04DX003 (ip), vehicle: water) was 104 % of control, the T/C (dose: 50.0 mg/kg/injection, schedule: Q01DX009 (ip), vehicle: water) was 108 % of control and the T/C (dose: 50.0 mg/kg/injection, schedule: Q04DX003 (ip), vehicle: water) was 97 % of control. For the same compound, the T/C (dose: 100.0 mg/kg/injection, schedule: Q01DX009 (ip), vehicle: water) was 111 % of control, the T/C (dose: 100.0 mg/kg/injection, schedule: Q04DX003 (ip), vehicle: water) was 104 % of control and the T/C (dose: 200.0 mg/kg/injection, schedule: Q01DX009 (ip), vehicle: water) was 106 % of control. For the same compound, the T/C (dose: 400.0 mg/kg/injection, schedule: Q01DX009 (ip), vehicle: water) was 106 % of control.
For `O=C(/C=C/c1cccc(Cl)c1)c1ccccc1`, the T/C [1] was 115 % of control.
In the case of `OC(Cc1ccnc2ccccc12)C(Cl)(Cl)Cl` (stereo not drawn), the T/C [2] is reported as 100 % of control, the T/C [3] is reported as 100 % of control and the T/C [4] is reported as 105 % of control. The T/C [5] was 100 % of control, the T/C [6] was 100 % of control and the T/C [7] was 100 % of control. The T/C [8] was 105 % of control, the T/C [9] was 100 % of control and the T/C [10] was 115 % of control.
`CC(=O)Nc1nc(C)c(CCC#N)c(=O)[nH]1` was tested, and the T/C (dose: 100.0 mg/kg/injection, schedule: Q04DX003 (ip), vehicle: saline) was 86 % of control, the T/C [11] was 90 % of control and the T/C [12] was 86 % of control.
For `Cc1nc2ccccc2c(=O)n1C(C)(C)CCl`, the T/C [5] was 100 % of control and the T/C [8] was 109 % of control.
`O=c1ccc2nc3cc(Cl)ccc3sc-2c1` was tested, and the T/C [1] was 109 % of control, the T/C [4] was 100 % of control and the T/C (dose: 200.0 mg/kg/injection, schedule: Q01DX009 (ip), vehicle: Klucel (hydroxypropylcellulose) (HPC)) was 95 % of control and 105 % of control. For the same compound, the T/C [7] was 90 % of control, the T/C (dose: 400.0 mg/kg/injection, schedule: Q01DX009 (ip), vehicle: Klucel (hydroxypropylcellulose) (HPC)) was 100 % of control and the T/C [10] was 90 % of control.
`Clc1ccc(-c2nc(-c3ccccc3)c(-c3ccccc3)o2)cc1` was tested, and the T/C [13] was 100 % of control, the T/C [3] was 111 % of control and the T/C [6] was 116 % of control.
With `CCCCOc1ccc(OCCCCCCCCCC[N+](C)(C)C)cc1` the T/C (dose: 3.13 mg/kg/injection, schedule: Q01DX009 (ip), vehicle: Klucel (hydroxypropylcellulose) (HPC)) was 112 % of control, the T/C (dose: 6.25 mg/kg/injection, schedule: Q01DX009 (ip), vehicle: Klucel (hydroxypropylcellulose) (HPC)) was 106 % of control and the T/C [14] was 105 % of control.
With `CN(C)C(=S)N=Nc1c(O)[nH]c2ccccc12` the T/C (dose: 1.56 mg/kg/injection, schedule: Q01DX009 (ip), vehicle: saline with Tween-80) was 109 % of control, the T/C (dose: 3.13 mg/kg/injection, schedule: Q01DX009 (ip), vehicle: saline with Tween-80) was 100 % of control and the T/C (dose: 6.25 mg/kg/injection, schedule: Q01DX009 (ip), vehicle: saline with Tween-80) was 100 % of control. The T/C (dose: 12.5 mg/kg/injection, schedule: Q01DX009 (ip), vehicle: saline with Tween-80) was 92 % of control, the T/C (dose: 25.0 mg/kg/injection, schedule: Q04DX003 (ip), vehicle: saline with Tween-80) was 105 % of control and the T/C [2] was 100 % of control. The T/C [15] was 90 % of control, the T/C [5] was 100 % of control and the T/C (dose: 400.0 mg/kg/injection, schedule: Q04DX003 (ip), vehicle: saline sonified) was 90 % of control.
With `CN1CCN(CCCN2c3ccccc3Sc3ccc(Cl)cc32)CC1` the T/C (dose: 6.25 mg/kg/injection, schedule: Q01DX009 (ip), vehicle: saline) was 113 % of control and the T/C (dose: 12.5 mg/kg/injection, schedule: Q01DX009 (ip), vehicle: saline) was 109 % of control.
With `Cc1ncc([N+](=O)[O-])n1CCSC(Cl)(Cl)Cl` the T/C [11] was 101 % of control and the T/C [12] was 111 % of control.
With `COC(=O)N(CCCl)N=O` the T/C (dose: 2.5 mg/kg/injection, schedule: Q01DX001 (ip), vehicle: saline with Tween-80) was 109 % of control, the T/C (dose: 5.0 mg/kg/injection, schedule: Q01DX001 (ip), vehicle: saline with Tween-80) was 109 % of control and the T/C (dose: 10.0 mg/kg/injection, schedule: Q01DX001 (ip), vehicle: saline with Tween-80) was 123 % of control.
For `Cc1c2cnccc2c(C)c2c1c1ccccc1n2CC1CO1` (stereo not drawn), the T/C (dose: 9.37 mg/kg/injection, schedule: Q01DX009 (ip), vehicle: Klucel (hydroxypropylcellulose) (HPC)) was 150 % of control, the T/C (dose: 11.0 mg/kg/injection, schedule: Q01DX009 (ip), vehicle: saline with Tween-80) was 168 % of control and the T/C (dose: 16.5 mg/kg/injection, schedule: Q01DX009 (ip), vehicle: saline with Tween-80) was 176 % of control. For the same compound, the T/C (dose: 25.0 mg/kg/injection, schedule: Q01DX009 (ip), vehicle: saline with Tween-80) was 106 % of control and the T/C (dose: 37.5 mg/kg/injection, schedule: Q01DX009 (ip), vehicle: saline with Tween-80) was 95 % of control.
With `Cc1ccn(C)c(=O)c1` the T/C [16] was 86 % of control, the T/C [17] was 86 % of control and the T/C [18] was 86 % of control and 100 % of control. The T/C (dose: 200.0 mg/kg/injection, schedule: Q01DX009 (ip), vehicle: saline) was 105 % of control.
In the case of `CCOC(=O)Nc1cc(NC(c2ccccc2)c2ccccc2)c2[nH]cnc2n1`, the T/C (dose: 15.0 mg/kg/injection, schedule: Q04DX003 (ip), vehicle: saline with Tween-80) is reported as 87 % of control and the T/C (dose: 60.0 mg/kg/injection, schedule: Q04DX003 (ip), vehicle: saline with Tween-80) is reported as 108 % of control.
In the case of `N#Cc1ccc(NCCO)cc1`, the T/C [5] is reported as 111 % of control, the T/C [8] is reported as 100 % of control and the T/C (dose: 400.0 mg/kg/injection, schedule: Q04DX003 (ip), vehicle: saline with Tween-80) is reported as 111 % of control.
For `O=C(O)CC[n+]1c(/C=C/c2cc(Br)c(O)c(Br)c2)sc2ccccc21`, the T/C (dose: 50.0 mg/kg/injection, schedule: Q04DX003 (ip), vehicle: saline sonified) was 100 % of control, the T/C [15] was 100 % of control and the T/C (dose: 200.0 mg/kg/injection, schedule: Q04DX003 (ip), vehicle: saline sonified) was 100 % of control.
In the case of `COc1cc(C(=O)OC2c3ccccc3CCC2N(C)C)cc(OC)c1OC` (stereo not drawn), the T/C [16] is reported as 102 % of control, the T/C [17] is reported as 103 % of control and 107 % of control and the T/C [18] is reported as 102 % of control.
`COc1ccc(CCNC(=O)/C=C\C(=O)O)cc1OC` was tested, and the T/C [3] was 95 % of control, the T/C [6] was 95 % of control and the T/C [9] was 100 % of control.
In the case of `O=C(NNc1ccccc1)OCc1ccccc1`, the T/C [14] is reported as 100 % of control, the T/C (dose: 25.0 mg/kg/injection, schedule: Q01DX009 (ip), vehicle: Klucel (hydroxypropylcellulose) (HPC)) is reported as 115 % of control and the T/C [19] is reported as 110 % of control. For the same compound, the T/C (dose: 75.0 mg/kg/injection, schedule: Q04DX003 (ip), vehicle: Klucel (hydroxypropylcellulose) (HPC)) was 95 % of control, the T/C (dose: 150.0 mg/kg/injection, schedule: Q04DX003 (ip), vehicle: Klucel (hydroxypropylcellulose) (HPC)) was 100 % of control and the T/C (dose: 300.0 mg/kg/injection, schedule: Q04DX003 (ip), vehicle: Klucel (hydroxypropylcellulose) (HPC)) was 90 % of control.
`Clc1ccc2c(c1)nnn2OC1CCCCC1` was tested, and the T/C [13] was 88 % of control, the T/C [3] was 92 % of control and the T/C [6] was 90 % of control.
With `C=CCOc1c(C)cc(C(C)(C)c2cc(C)c(OCC=C)c(C)c2)cc1C` the T/C (dose: 25.0 mg/kg/injection, schedule: Q01DX001 (ip), vehicle: other) was 104 % of control, the T/C (dose: 50.0 mg/kg/injection, schedule: Q01DX001 (ip), vehicle: other) was 109 % of control and the T/C (dose: 100.0 mg/kg/injection, schedule: Q01DX001 (ip), vehicle: other) was 95 % of control.
With `CCCCNC(=O)OC` the T/C [19] was 100 % of control, the T/C (dose: 50.0 mg/kg/injection, schedule: Q04DX003 (ip), vehicle: Klucel (hydroxypropylcellulose) (HPC)) was 100 % of control and the T/C [1] was 100 % of control. The T/C [4] was 95 % of control and the T/C [7] was 115 % of control.
